Earlier results in patent US6485514B1 (priority 1997, dated 2002).
Read-outs that look alike come from different tables or passages of the source.

What was measured:
[1] = system: human colon cancer xenografts
[2] = administered intravenously, clinical trials
[3] = cremaphor vehicle, 6-hour IV infusion
[4] = system: drug-refractory ovarian cancer; conditions: in vivo
[5] = patients

CC[C@@]1(O)C(=O)OCc2c1cc1n(c2=O)Cc2cc3c(N)cccc3nc2-1 [9AC, 9-Amino-20(S)-Camptothecin]
anticancer activity against human colon cancer xenografts [1]: high anticancer activity

CC[C@@]1(O)C(=O)OCc2c1cc1n(c2=O)Cc2cc3cc4c(cc3nc2-1)OCO4 [10,11 MD, 10,11-Methylendioxy-20(S)-Camptothecin]
anticancer activity against human colon cancer xenografts [1]: high anticancer activity

CC[C@@](O)(C(=O)[O-])c1cc2n(c(=O)c1CO)Cc1cc3ccccc3nc1-2.[Na+] [CPT Na+, Camptothecin Sodium Salt]
clinical outcome (toxicity and potency) ([2]; listed as sodium salt of CPT): high toxicity and low potency | clinical outcome (toxicity and potency) ([2]; Sodium Salt): ineffectiveness and the toxicity

CC(=O)O[C@H]1C(=O)[C@@]2(C)[C@H]([C@H](OC(=O)c3ccccc3)[C@]3(O)C[C@H](OC(=O)[C@H](O)[C@@H](NC(=O)c4ccccc4)c4ccccc4)C(C)=C1C3(C)C)[C@]1(OC(C)=O)CO[C@@H]1C[C@@H]2O [taxol]
dose-limiting toxicity [3]: neurotoxicity and leucopenia were dose-limiting | activity against drug-refractory ovarian cancer [4]: active agent | maximum tolerated dose ([5]; 6-hour IV infusion every 21 days): 275 mg/m^2 | dose-limiting toxicity ([5]; 6-hour IV infusion): Myelosuppression was dose-limiting
